Results from the supplement of paper PMC4862054.

What was measured:
Details in all cases: incubation time: 72 h
CAL-148 [1] = experiment: normalised response (% of control), CellTiter-Glo; higher = more viable cells (100 = DMSO, 0 = benzethonium chloride kill control)
Procedure, shortened: (§1)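 The table gives the normalised signal for a single concentration in each entry. Breast cancer cell lines were seeded (20 µl suspension) into 384-well plates holding compound at 5 concentrations in 10-fold steps over a compound-specific 10,000-fold range and incubated 72 h, then read for CellTox Green fluorescence (485/520 nm) and CellTiter-Glo luminescence. Normalisation on each plate used 0.1 % DMSO (100) and a positive kill control (0).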

MCF-10A [2] = experiment: as above
Procedure, shortened: as §1

HCC1599 [3] = experiment: as above
Procedure, shortened: as §1

DU-4475 [4] = experiment: as above
Procedure, shortened: as §1

Hs578T [5] = experiment: as above
Procedure, shortened: as §1

SK-BR-3 = experiment: as above
Procedure, shortened: as §1

MFM-223 [6] = experiment: as above
Procedure, shortened: as §1

MDA-MB-436 [7] = experiment: as above
Procedure, shortened: as §1

BT-474 [8] = experiment: as above
Procedure, shortened: as §1

HCC1143 [9] = experiment: as above
Procedure, shortened: as §1

BT-549 [10] = experiment: as above
Procedure, shortened: as §1

CAL-120 [11] = experiment: as above
Procedure, shortened: as §1

MDA-MB-231 [12] = experiment: as above
Procedure, shortened: as §1

CAL-51 [13] = experiment: as above
Procedure, shortened: as §1

HDQ-P1 [14] = experiment: as above
Procedure, shortened: as §1

CAL-85-1 [15] = experiment: as above
Procedure, shortened: as §1

MDA-MB-453 [16] = experiment: as above
Procedure, shortened: as §1

MDA-MB-468 [17] = experiment: as above
Procedure, shortened: as §1

HCC1937 [18] = experiment: as above
Procedure, shortened: as §1

CAL-148 [19] = experiment: normalised response (% of control), CellTox Green; higher = less cell death (100 = DMSO, 0 = benzethonium chloride kill control)
Procedure, shortened: as §1

MCF-10A [20] = experiment: as above
Procedure, shortened: as §1

HCC1599 [21] = experiment: as above
Procedure, shortened: as §1

DU-4475 [22] = experiment: as above
Procedure, shortened: as §1

Hs578T [23] = experiment: as above
Procedure, shortened: as §1

MFM-223 [24] = experiment: as above
Procedure, shortened: as §1

MDA-MB-436 [25] = experiment: as above
Procedure, shortened: as §1

BT-474 [26] = experiment: as above
Procedure, shortened: as §1

HCC1143 [27] = experiment: as above
Procedure, shortened: as §1

BT-549 [28] = experiment: as above
Procedure, shortened: as §1

CAL-120 [29] = experiment: as above
Procedure, shortened: as §1

MDA-MB-231 [30] = experiment: as above
Procedure, shortened: as §1

CAL-51 [31] = experiment: as above
Procedure, shortened: as §1

HDQ-P1 [32] = experiment: as above
Procedure, shortened: as §1

CAL-85-1 [33] = experiment: as above
Procedure, shortened: as §1

MDA-MB-453 [34] = experiment: as above
Procedure, shortened: as §1

MDA-MB-468 [35] = experiment: as above
Procedure, shortened: as §1

HCC1937 [36] = experiment: as above
Procedure, shortened: as §1

SMILES	normalised response (CAL-148 [1]) [%]	normalised response (MCF-10A [2]) [%]	normalised response (HCC1599 [3]) [%]	normalised response (DU-4475 [4]) [%]	normalised response (Hs578T [5]) [%]	normalised response (SK-BR-3) [%]	normalised response (MFM-223 [6]) [%]	normalised response (MDA-MB-436 [7]) [%]	normalised response (BT-474 [8]) [%]	normalised response (HCC1143 [9]) [%]	normalised response (BT-549 [10]) [%]	normalised response (CAL-120 [11]) [%]	normalised response (MDA-MB-231 [12]) [%]	normalised response (CAL-51 [13]) [%]	normalised response (HDQ-P1 [14]) [%]	normalised response (CAL-85-1 [15]) [%]	normalised response (MDA-MB-453 [16]) [%]	normalised response (MDA-MB-468 [17]) [%]	normalised response (HCC1937 [18]) [%]	normalised response (CAL-148 [19]) [%]	normalised response (MCF-10A [20]) [%]	normalised response (HCC1599 [21]) [%]	normalised response (DU-4475 [22]) [%]	normalised response (Hs578T [23]) [%]	normalised response (MFM-223 [24]) [%]	normalised response (MDA-MB-436 [25]) [%]	normalised response (BT-474 [26]) [%]	normalised response (HCC1143 [27]) [%]	normalised response (BT-549 [28]) [%]	normalised response (CAL-120 [29]) [%]	normalised response (MDA-MB-231 [30]) [%]	normalised response (CAL-51 [31]) [%]	normalised response (HDQ-P1 [32]) [%]	normalised response (CAL-85-1 [33]) [%]	normalised response (MDA-MB-453 [34]) [%]	normalised response (MDA-MB-468 [35]) [%]	normalised response (HCC1937 [36]) [%]
CN1CCC(COc2cnc(-c3cccc(Cn4nc(-c5cccc(C#N)c5)ccc4=O)c3)nc2)CC1 (100 nM)	100	99.3	102	100	104	82.2	90.5	93.1	92.7	93.3	94	95.8	101	74	98.9	93.5	85.2	90.9	97.7	103	102	110	97.6	110	101	99.9	97.9	101	149	98.9	119	93.3	103	95.1	107	157	125
C=CCNC1=C2C[C@@H](C)C[C@H](OC)[C@H](O)[C@@H](C)/C=C(\C)[C@H](OC(N)=O)[C@@H](OC)/C=C\C=C(/C)C(=O)NC(=CC1=O)C2=O [Tanespimycin] (10 nM)	96.4	105	94.4	105	94.4	103	101	92.6	90.4	105	98.3	97.9	101	120	98.2	100	92.8	94.2	96.5	–	–	–	–	–	–	–	–	–	–	–	–	–	–	–	–	–	–
CO[C@H]1C[C@@H]2CC[C@@H](C)[C@@](O)(O2)C(=O)C(=O)N2CCCC[C@H]2C(=O)O[C@H]([C@H](C)C[C@@H]2CC[C@@H](OC(=O)C(C)(CO)CO)[C@H](OC)C2)CC(=O)[C@H](C)/C=C(\C)[C@@H](O)[C@@H](OC)C(=O)[C@H](C)C[C@H](C)/C=C/C=C/C=C/1C [Temsirolimus] (0.01 nM)	110	101	97	103	96.7	101	101	99.7	103	98.1	98.3	99.6	101	115	105	106	108	106	97.1	–	–	–	–	–	–	–	–	–	–	–	–	–	–	–	–	–	–
CO[C@H]1C[C@@H]2CC[C@@H](C)[C@@](O)(O2)C(=O)C(=O)N2CCCC[C@H]2C(=O)O[C@H]([C@H](C)C[C@@H]2CC[C@@H](OC(=O)C(C)(CO)CO)[C@H](OC)C2)CC(=O)[C@H](C)/C=C(\C)[C@@H](O)[C@@H](OC)C(=O)[C@H](C)C[C@H](C)/C=C/C=C/C=C/1C [Temsirolimus] (10 nM)	62.1	87.7	109	74.8	70	60.7	70.7	79.9	83.3	63.9	55.1	67.8	93	55.5	77.4	67.9	53.5	62.1	74.4	90.9	–	101	95.5	-83.2	75.2	102	103	84	134	101	124	107	97.4	95.8	107	103	-57.4
O=C(c1ccc(C(=O)N2CCC(N3CCCC3)CC2)c(Nc2ccccc2)c1)N1CCC(N2CCCC2)CC1 [UNC1215] (3 nM)	91	102	92.1	97.2	99.1	99	94.5	93.6	94.4	87.5	96.6	95.3	99.1	123	97.3	93.7	102	101	91.7	–	–	–	–	–	–	–	–	–	–	–	–	–	–	–	–	–	–
O=C(c1ccc(C(=O)N2CCC(N3CCCC3)CC2)c(Nc2ccccc2)c1)N1CCC(N2CCCC2)CC1 [UNC1215] (30 nM)	95	103	118	97	103	100	91.4	104	98.7	97.3	97.8	102	90.2	77.9	94.3	96.7	91.5	97.4	96.7	–	–	–	–	–	–	–	–	–	–	–	–	–	–	–	–	–	–
O=C(c1ccc(C(=O)N2CCC(N3CCCC3)CC2)c(Nc2ccccc2)c1)N1CCC(N2CCCC2)CC1 [UNC1215] (3000 nM)	94.9	108	107	98.3	95.3	93.5	92.6	92.8	95	93.9	96.9	98	91.2	115	100	94.7	98	91.6	94	99.7	101	99.8	98.5	–	101	96.3	96.9	109	85.1	99.3	98	114	–	96.8	99.2	80.5	111
C[C@]1(c2nc3c(C(N)=O)cccc3[nH]2)CCCN1 [Veliparib] (10 nM)	98.8	105	92.1	104	98.8	110	99.7	99	103	105	100	102	99	118	98.7	106	109	108	101	–	–	–	–	–	–	–	–	–	–	–	–	–	–	–	–	–	–
CC[C@]1(O)C[C@@H]2CN(CCc3c([nH]c4ccccc34)[C@@](C(=O)OC)(c3cc4c(cc3OC)N(C)[C@H]3[C@@](O)(C(=O)OC)[C@H](OC(C)=O)[C@]5(CC)C=CCN6CC[C@]43[C@@H]65)C2)C1 [Vinblastine] (1 nM)	98.8	103	101	96.9	102	94.7	97.6	90.7	100	97.1	87.8	95	94.7	101	101	93	97.2	97.9	94.9	–	–	–	–	–	–	–	–	–	–	–	–	–	–	–	–	–	–
CS(=O)(=O)c1ccc(C(=O)Nc2ccc(Cl)c(-c3ccccn3)c2)c(Cl)c1 [Vismodegib] (10 nM)	91	90.3	100	96.4	95.4	105	94.3	91.5	90.2	93.9	96.4	95.2	90.8	126	99.4	102	89.4	92.9	96.4	–	–	–	–	–	–	–	–	–	–	–	–	–	–	–	–	–	–
